Experiment: LogP by HPLC on reversed phase columns (EEC directive 79/831 Annex V.A8)
Type: physicochemical
Conditions: method [a]: LC-UV, acidic range, 0.1% formic acid in water and acetonitrile as eluent
Experimental: Measurement of LogP values was performed according to EEC directive 79/831 Annex V.A8 by HPLC (High Performance Liquid Chromatography) on reversed phase columns with the following methods: • ^[a] […] Lambda-max-values were determined using UV-spectra from 200 nm to 400 nm and the peak values of the chromatographic signals.

SMILES | LogP
FC(F)(F)c1nc(Oc2ccc(Br)cc2)ccc1C1(Cn2cncn2)OCC(C(F)(F)F)O1 (racemic) [I.23] | 3.80 ^[a]
FC(F)(F)c1nc(Oc2ccc(Br)cc2)ccc1C1(Cn2cncn2)OCC(C(F)(F)F)O1 (racemic) [I.26] | 2.26 ^[a]
CCC1COC(Cn2cncn2)(c2ccc(Oc3ccc(OC(F)(F)F)cc3)nc2C(F)(F)F)O1 (stereo not drawn) [I.24] | 4.09 ^[a]
CC1COC(Cn2cncn2)(c2ccc(Oc3ccc(Cl)cc3)nc2C(F)(F)F)O1 (racemic) [I.09] | 3.46^[a]
CCC1COC(Cn2cncn2)(c2ccc(Oc3ccc(Cl)cc3)nc2C(F)(F)F)O1 (mixture of isomers) [I.15] | 3.83^[a]
Cc1ccc(Oc2ccc(C3(Cn4cncn4)OCCO3)c(C(F)(F)F)n2)cc1 [I.25] | 3.21 ^[a]
CSc1ccc(Oc2ccc(C3(Cn4cncn4)OCCO3)c(C(F)(F)F)n2)cc1 [I.20] | 3.05 ^[a]
CC1COC(Cn2cncn2)(c2ccc(Oc3ccc(OC(F)(F)F)cc3)nc2C(F)(F)F)O1 (mixture of isomers) [I.21] | 3.76 ^[a]
FC(F)(F)c1nc(Oc2ccc(Br)cc2)ccc1C1(Cn2nc[nH]c2=S)OCCO1 [I-S.05] | 3.14 ^[a]
CC1COC(Cn2cncn2)(c2ccc(Oc3ccc(S(F)(F)(F)(F)F)cc3)nc2C(F)(F)F)O1 (mixture of isomers) [I.19] | 3.85^[a]
CCC1COC(Cn2cncn2)(c2ccc(Oc3ccc(S(F)(F)(F)(F)F)cc3)nc2C(F)(F)F)O1 (mixture of isomers) [I.01] | 4.15^[a]
CC1OC(Cn2cncn2)(c2ccc(Oc3ccc(Cl)cc3)nc2C(F)(F)F)OC1C (mixture of isomers) [I.18] | 3.76^[a]
FC(F)(F)Oc1ccc(Oc2ccc(C3(Cn4cncn4)OCCO3)c(C(F)(F)F)n2)cc1 [I.22] | 3.46 ^[a]
CCCC1COC(Cn2cncn2)(c2ccc(Oc3ccc(Br)cc3)nc2C(F)(F)F)O1 (mixture of isomers) [I.08] | 4.32^[a]
CC1COC(Cn2cncn2)(c2ccc(Oc3ccc(Cl)cc3)nc2C(F)(F)F)O1 (single isomer, unassigned) [I.13] | 3.48^[a]
Cc1ccc(Oc2ccc(C3(Cn4nc[nH]c4=S)OCCO3)c(C(F)(F)F)n2)cc1 [I-S.03] | 2.94 ^[a]
CC1OC(Cn2cncn2)(c2ccc(Oc3ccc(Br)cc3)nc2C(F)(F)F)OC1C (mixture of isomers) [I.17] | 3.85^[a]
CC1COC(Cn2cncn2)(c2ccc(Oc3ccc(C(F)(F)F)cc3)nc2C(F)(F)F)O1 (mixture of isomers) [I.10] | 3.62^[a]
CCC1COC(Cn2cncn2)(c2ccc(Oc3ccc(Br)cc3)nc2C(F)(F)F)O1 (mixture of isomers) [I.06] | 3.94^[a]
CSc1ccc(Oc2ccc(C3(Cn4nc[nH]c4=S)OCCO3)c(C(F)(F)F)n2)cc1 [I-S.04] | 2.95 ^[a]
CC1COC(Cn2cncn2)(c2ccc(Oc3ccc(Cl)cc3)nc2C(F)(F)F)O1 (single isomer, unassigned) [I.12] | 3.48^[a]
CC1COC(Cn2cncn2)(c2ccc(Oc3ccc(Cl)cc3)nc2C(F)(F)F)O1 (mixture of isomers) [I.03] | 3.55^[a]
CCCC1COC(Cn2cncn2)(c2ccc(Oc3ccc(Cl)cc3)nc2C(F)(F)F)O1 (mixture of isomers) [I.05] | 4.19^[a]

Same assay, conditions: reversed phase HPLC column, method [a]: LC-UV, acidic range, 0.1% formic acid in water and acetonitrile as eluent

SMILES | chromatographic logP
CC1(c2ccc(Oc3ccc(Cl)cc3)nc2C(F)(F)F)OCCO1 [XV.01, 6-(4-chlorophenoxy)-3-(2-methyl-1,3-dioxolan-2-yl)-2-(trifluoromethyl)pyridine] | 4.44

— patent publication US20190211002A1, “NOVEL TRIAZOLE DERIVATIVES” (Bayer CropScience Aktiengesellschaft, priority 2016, published 2019)
